The test system of one assay is S. aureus Smith. The experiment in a line: Mouse systemic infection (septicemia) model, CD-1 mice. The conditions noted are these: Staphylococcus aureus, in Mus musculus, 48 h; for responders at 3 mg/kg: iv, read-out: Percent survival at 48 hours, IV (3 mg/kg); for responders at 30 mg/kg: po, read-out: Percent survival at 48 hours, PO (30 mg/kg).
In assay [1] the test system is Gram-negative and Gram-positive organisms (clinical isolates). The experiment in a line: Broth microdilution MIC against clinical isolates (CLSI M7-A8), Table 9. Type of assay: cell-based. (In broth dilution the organism is exposed to a series of concentrations in liquid medium.)
[2] abbreviates: Staphylococcus aureus, Staphylococcus aureus (MRSA PVL+), n=30, read-out: MIC90.
The mark [3] stands for this setting: Staphylococcus aureus, Staphylococcus aureus MRSA (includes MRSA PVL+ group), n=105, read-out: MIC50.
Setting [4] is: Staphylococcus aureus, Staphylococcus aureus MRSA (includes MRSA PVL+ group), n=105, read-out: MIC90.
The mark [5] stands for this setting: Streptococcus sanguis, n=18, read-out: MIC50.
[6] abbreviates: Streptococcus sanguis, n=18, read-out: MIC90.
[7] abbreviates: Acinetobacter lwoffii, n=29, read-out: MIC50.
The mark [8] stands for this setting: Acinetobacter lwoffii, n=29, read-out: MIC90.
Where [9] appears, read: Klebsiella aerogenes, Enterobacter aerogenes, n=30.
Where [10] appears, read: Klebsiella pneumoniae, Klebsiella pneumonia, n=27.
Where [11] appears, read: Salmonella species, n=30, read-out: MIC50.
Where [12] appears, read: Staphylococcus aureus, Staphylococcus aureus (MRSA PVL+), n=30, read-out: MIC50.
Setting [13] is: Stenotrophomonas maltophilia, n=29.
Where [14] appears, read: Streptococcus intermedius, n=30.

Converted amounts (≈) assume the structure as drawn. Read-outs that look alike come from different tables or passages of the source.

`CC(C)N1Cc2c(O)c3c(c(C(F)(F)F)c2C1)C[C@H]1C[C@H]2[C@H](N(C)C)C(O)=C(C(N)=O)C(=O)[C@@]2(O)C(O)=C1C3=O` [Compound 126]: in the assay on S. aureus Smith, the responders at 3 mg/kg is 83% and the responders at 30 mg/kg came out at 100%.
Regarding `CC[C@H](C)N1Cc2c(O)c3c(c(F)c2C1)C[C@H]1C[C@H]2[C@H](N(C)C)C(O)=C(C(N)=O)C(=O)[C@@]2(O)C(O)=C1C3=O` [Compound 123], in the assay with S. aureus Smith, the responders at 3 mg/kg is 33% and the responders at 30 mg/kg worked out at 67%.
The like results for `CN1CC(=O)Nc2c(O)c3c(c(F)c2C1)C[C@H]1C[C@H]2[C@H](N(C)C)C(O)=C(C(N)=O)C(=O)[C@@]2(O)C(O)=C1C3=O` [Compound 416] were, in that order, 100% and 20%.
As usually defined, the MIC50 is the lowest concentration that inhibits either 50% of growth or 50% of the strains tested, depending on the study. One may read the MIC90 as an inhibitory concentration at the 90% level, which refers to growth in some studies and to a panel of isolates in others. As for `CN[C@H](CC(C)C)C(=O)N[C@H]1C(=O)N[C@@H](CC(N)=O)C(=O)N[C@H]2C(=O)N[C@H]3C(=O)N[C@H](C(=O)N[C@H](C(=O)O)c4cc(O)cc(O)c4-c4cc3ccc4O)[C@H](O)c3ccc(c(Cl)c3)Oc3cc2cc(c3O[C@@H]2O[C@H](CO)[C@@H](O)[C@H](O)[C@H]2O[C@H]2C[C@](C)(N)[C@H](O)[C@H](C)O2)Oc2ccc(cc2Cl)[C@H]1O` [Vancomycin, vancomycin], the MIC50 in assay [1] (Staphylococcus aureus (MRSA PVL+), n=30, read-out: MIC50) turned out to be 1 µg/mL (≈ 0.69 µM); in assay [1] (setting [3]) it was 1 µg/mL (≈ 0.69 µM); in assay [1] (Streptococcus anginosus, n=20, read-out: MIC50), 0.5 µg/mL (≈ 0.345 µM); in assay [1] (Streptococcus intermedius, n=30, read-out: MIC50) it was 0.5 µg/mL (≈ 0.345 µM); in assay [1] (Streptococcus mitis, n=29, read-out: MIC50), 0.5 µg/mL (≈ 0.345 µM); in assay [1] (setting [5]), 0.5 µg/mL (≈ 0.345 µM). For the same compound, the MIC90 in assay [1] (setting [2]) is 1 µg/mL (≈ 0.69 µM); in assay [1] (setting [4]), 1 µg/mL (≈ 0.69 µM); in assay [1] (Streptococcus anginosus, n=20, read-out: MIC90), 0.5 µg/mL (≈ 0.345 µM); in assay [1] (Streptococcus intermedius, n=30, read-out: MIC90), 0.5 µg/mL (≈ 0.345 µM); in assay [1] (Streptococcus mitis, n=29, read-out: MIC90), 0.5 µg/mL (≈ 0.345 µM); in assay [1] (setting [6]), 1 µg/mL (≈ 0.69 µM).
Take `C[C@@H](O)[C@H]1C(=O)N2C(C(=O)O)=C(S[C@@H]3CN[C@H](C(=O)Nc4cccc(C(=O)O)c4)C3)[C@H](C)[C@H]12` [Ertapenem]: the MIC50 in assay [1] (setting [7]) was no more than 1 µg/mL; in assay [1] (Enterobacter cloacae, n=29), no more than 1 µg/mL; in assay [1] (Escherichia coli, n=40) it was no more than 1 µg/mL; in assay [1] (Kiebsielia oxytoca, n=30), no more than 1 µg/mL; in assay [1] (setting [9]), no more than 1 µg/mL; in assay [1] (setting [10]) it was no more than 1 µg/mL. Moreover, the MIC50 was no more than 1 µg/mL in assay [1] (Morganella morganii, n=30); no more than 1 µg/mL in assay [1] (Proteus vulgaris, n=29); no more than 1 µg/mL in assay [1] (setting [11]); no more than 1 µg/mL in assay [1] (Serratia marcescens, n=30); 4 µg/mL (≈ 8.41 µM) in assay [1] (setting [12]); greater than 8 µg/mL in assay [1] (setting [13]). Also, the MIC50 in assay [1] (Streptococcus anginosus, n=20) came out at 0.12 µg/mL (≈ 0.252 µM); in assay [1] (setting [14]), 0.06 µg/mL (≈ 0.126 µM); in assay [1] (Streptococcus mitis, n=29), 0.25 µg/mL (≈ 0.526 µM); in assay [1] (setting [5]), 0.12 µg/mL (≈ 0.252 µM). In addition, the MIC90 in assay [1] (setting [8]) is 4 µg/mL (≈ 8.41 µM); in assay [1] (Enterobacter cloacae, n=29), greater than 8 µg/mL; in assay [1] (Escherichia coli, n=40) it was no more than 1 µg/mL; in assay [1] (Kiebsielia oxytoca, n=30), no more than 1 µg/mL; in assay [1] (setting [9]) it was no more than 1 µg/mL; in assay [1] (setting [10]), 8 µg/mL (≈ 16.8 µM). Further, the MIC90 in assay [1] (Morganella morganii, n=30) is no more than 1 µg/mL; in assay [1] (Proteus vulgaris, n=29) it was no more than 1 µg/mL; in assay [1] (Serratia marcescens, n=30), no more than 1 µg/mL; in assay [1] (setting [2]), 8 µg/mL (≈ 16.8 µM); in assay [1] (setting [13]), greater than 8 µg/mL; in assay [1] (Streptococcus anginosus, n=20) it was 0.25 µg/mL (≈ 0.526 µM). Further, the MIC90 was 0.5 µg/mL (≈ 1.05 µM) in assay [1] (setting [14]); greater than 1 µg/mL in assay [1] (Streptococcus mitis, n=29); 0.5 µg/mL (≈ 1.05 µM) in assay [1] (setting [6]).
On to colistin, for which the MIC50 entry in assay [1] (Acinetobacter lwoffii, n=29) was “≦0.12 μg/ml”; in assay [1] (Enterobacter aerogenes, n=30), “≦0.12 μg/ml”; in assay [1] (Enterobacter cloacae, n=29), “≦0.12 μg/ml”; in assay [1] (Escherichia coli, n=40), 0.25 µg/mL; in assay [1] (Kiebsielia oxytoca, n=30), “≦0.12 μg/ml”; in assay [1] (Klebsiella pneumonia, n=27) it was 0.25 µg/mL. For the same compound, the MIC50 in assay [1] (Morganella morganii, n=30) is greater than 2 µg/mL; in assay [1] (Proteus vulgaris, n=29), greater than 2 µg/mL; in assay [1] (Salmonella species, n=30), “≦0.12 μg/ml”; in assay [1] (Serratia marcescens, n=30) it was greater than 2 µg/mL; in assay [1] (Shigella species, n=30), “≦0.12 μg/ml”; in assay [1] (setting [13]), 0.25 µg/mL. Moreover, the MIC90 is greater than 2 µg/mL in assay [1] (Acinetobacter lwoffii, n=29); “≦0.12 μg/ml” in assay [1] (Enterobacter aerogenes, n=30); greater than 2 µg/mL in assay [1] (Enterobacter cloacae, n=29); 0.5 µg/mL in assay [1] (Escherichia coli, n=40); 0.25 µg/mL in assay [1] (Kiebsielia oxytoca, n=30); 0.5 µg/mL in assay [1] (Klebsiella pneumonia, n=27). For the same compound, the MIC90 is greater than 2 µg/mL in assay [1] (Morganella morganii, n=30); greater than 2 µg/mL in assay [1] (Proteus vulgaris, n=29); 0.5 µg/mL in assay [1] (Salmonella species, n=30); greater than 2 µg/mL in assay [1] (Serratia marcescens, n=30); “≦0.12 μg/ml” in assay [1] (Shigella species, n=30); greater than 2 µg/mL in assay [1] (setting [13]).
`CCC[C@@H]1C[C@@H](C(=O)N[C@@H]([C@H]2O[C@H](SC)[C@H](O)[C@@H](O)[C@H]2O)[C@H](C)Cl)N(C)C1` [Clindamycin]: the MIC50 is 0.03 µg/mL (≈ 0.0706 µM) in assay [1]; 0.06 µg/mL (≈ 0.141 µM) in assay [1] (setting [12]); no more than 0.015 µg/mL in assay [1] (Streptococcus anginosus, n=20); no more than 0.015 µg/mL in assay [1] (setting [14]); 0.03 µg/mL (≈ 0.0706 µM) in assay [1] (Streptococcus mitis, n=29). Besides, the MIC90 worked out at 0.06 µg/mL (≈ 0.141 µM) in assay [1]; 0.12 µg/mL (≈ 0.282 µM) in assay [1] (setting [2]); 0.03 µg/mL (≈ 0.0706 µM) in assay [1] (Streptococcus anginosus, n=20); 0.06 µg/mL (≈ 0.141 µM) in assay [1] (setting [14]); 0.06 µg/mL (≈ 0.141 µM) in assay [1] (Streptococcus mitis, n=29).
On to `C[C@H]1COc2c(N3CCN(C)CC3)c(F)cc3c(=O)c(C(=O)O)cn1c23` [Levofloxacin, levofloxacin], for which the MIC50 was no more than 0.25 µg/mL in assay [1] (setting [7]); 1 µg/mL (≈ 2.77 µM) in assay [1] (Enterobacter cloacae, n=29); no more than 0.25 µg/mL in assay [1] (Escherichia coli, n=40); no more than 0.25 µg/mL in assay [1] (Kiebsielia oxytoca, n=30); no more than 0.25 µg/mL in assay [1] (setting [9]); 1 µg/mL (≈ 2.77 µM) in assay [1] (setting [10]). In addition, the MIC50 in assay [1] (Morganella morganii, n=30) is no more than 0.25 µg/mL; in assay [1] (Proteus vulgaris, n=29), no more than 0.25 µg/mL; in assay [1] (setting [11]), no more than 0.25 µg/mL; in assay [1] (Serratia marcescens, n=30) it was no more than 0.25 µg/mL; in assay [1] (setting [12]), 0.25 µg/mL (≈ 0.692 µM); in assay [1] (setting [3]), greater than 2 µg/mL. Moreover, the MIC50 was found to be 0.5 µg/mL (≈ 1.38 µM) in assay [1] (setting [13]); 0.5 µg/mL (≈ 1.38 µM) in assay [1] (Streptococcus anginosus, n=20); 1 µg/mL (≈ 2.77 µM) in assay [1] (setting [14]); 1 µg/mL (≈ 2.77 µM) in assay [1] (Streptococcus mitis, n=29); 0.5 µg/mL (≈ 1.38 µM) in assay [1] (setting [5]). The MIC90 in assay [1] (setting [8]) was no more than 0.25 µg/mL; in assay [1] (Enterobacter cloacae, n=29), greater than 4 µg/mL; in assay [1] (Escherichia coli, n=40) it was greater than 4 µg/mL; in assay [1] (Kiebsielia oxytoca, n=30), 4 µg/mL (≈ 11.1 µM); in assay [1] (setting [9]), no more than 0.25 µg/mL; in assay [1] (setting [10]), greater than 4 µg/mL. Also, the MIC90 was 4 µg/mL (≈ 11.1 µM) in assay [1] (Morganella morganii, n=30); 1 µg/mL (≈ 2.77 µM) in assay [1] (Proteus vulgaris, n=29); no more than 0.25 µg/mL in assay [1] (Salmonella species, n=30, read-out: MIC90); 2 µg/mL (≈ 5.53 µM) in assay [1] (Serratia marcescens, n=30); 0.5 µg/mL (≈ 1.38 µM) in assay [1] (Shigella species, n=30, read-out: MIC90); greater than 2 µg/mL in assay [1] (setting [2]). Further, the MIC90 is greater than 2 µg/mL in assay [1] (setting [4]); greater than 4 µg/mL in assay [1] (setting [13]); 0.5 µg/mL (≈ 1.38 µM) in assay [1] (Streptococcus anginosus, n=20); 2 µg/mL (≈ 5.53 µM) in assay [1] (setting [14]); 2 µg/mL (≈ 5.53 µM) in assay [1] (Streptococcus mitis, n=29); 2 µg/mL (≈ 5.53 µM) in assay [1] (setting [6]).

The values above are taken from patent US20170107179A1 (Tetraphase Pharmaceuticals, Inc., priority 2010, published 2017).
